Reference: US20250171400A1, “AZA-HETEROCYCLYL CARBOXAMIDE AND RELATED COMPOUNDS AND THEIR USE IN TREATING MEDICAL CONDITIONS” (X-BIOTIX THERAPEUTICS, INC., priority 2021, published 2025)
Values after ≈ are worked out from the molar mass of the structure shown. Read-outs that look alike come from different tables or passages of the source.

Columns and labels:
E. coli LpxC = E. coli LpxC (Escherichia coli (strain K12), UniProt P0A725); assay: in vitro substrate deacetylation assay for inhibition of LpxC (ADDA analysis); type: biochemical; settings: 5 nM E. coli LpxC, 2.5 μM substrate, 1 hour at room temperature
Protocol: (§1) Exemplary compounds from the above Examples were tested for ability to inhibit LpxC activity using an in vitro substrate deacetylation assay with ADDA™ analysis. Assay procedures and results are described below.
Dilutions of test compound were pre-incubated with 5 nM P. aeruginosa or E. coli LpxC for 10 minutes at room temperature in 50 mM NaH2PO4, 500 mM sucrose, 0.2 mg/mL BSA, pH 7.2 and <1% DMSO. Reactions were initiated by the addition of 2× substrate (UDP-3-O—(R-3-hydroxydecanoyl)-N-acetylglucosamine, Carbosynth Ltd, UK, for P. aeruginosa LpxC and UDP-3-O—(R-3-hydroxymyristoyl)-N-acetylglucosamine, BOC Sciences, USA, for E. coli LpxC), in 50 mM NaH2PO4, 0.5 mg/mL BSA, pH 7.2, to a final concentration of 2.5 μM. Reactions proceeded for 1 hour at room temperature prior to quenching with and equal volume of 2% acetic acid.
For ADDA™ analysis, an aliquot of assay sample was withdrawn from each well of the 384-well plate and applied to a Hypercarb cartridge (Optimize Technologies, USA) under conditions designed to retain analytes of interest. Analytes were eluted using 1:1:2 acetone:acetonitrile:water containing 5 mM ammonium acetate then analysed by triple-quadrupole mass spectrometry. Mass spectrometry was carried out using electrospray ionization in negative ion mode. Daughter ion peaks representing detected substrate (P. aeruginosa: parent Q1 mass=775.8 amu, daughter Q3 mass=384.7 amu E. coli: parent Q1 mass=833.0 amu, daughter Q3 mass=385.0 amu, collision energy=analyte specific, dwell time=50 ms) were identified using a multiple-reaction monitoring protocol.
Total activity (0% inhibition) was obtained from reactions containing no compound, and 100% inhibition is defined as reactions in the presence of 1 μM CHIR-090 (N-[(1S,2R)-2-hydroxy-1-[(hydroxyamino)carbonyl]propyl]-4-[2-[4-(4-morpholinylmethyl)phenyl]ethynyl]-benzamide). For IC50 determinations, peak areas of the substrate and product were compared to compute the proportion of substrate reacted by the LpxC enzyme at each compound concentration. The fractional activity was converted to percentage inhibition and plotted against compound concentration in ActivityBase™ and fit using a four-parameter logistic using non-linear regression to yield the IC50 value.

[1] = test system: wild-type P. aeruginosa PAO1; assay: broth microdilution minimum inhibition concentration assay; type: cell-based; settings: Pseudomonas aeruginosa
Protocol: (§2) Exemplary compounds from the above Examples were tested to determine their minimum inhibitory concentration (MIC) for exemplary strains of Eschericia and Pseudomonas bacteria using broth microdilution methods. Assay procedures and results are described below.
(§3) Broth microdilution assays were conducted according to Clinical and Laboratory Standards Institute guidelines (CLSI, M07-A11: Clinical and Laboratory Standards Institute. Methods for Dilution Antimicrobial Susceptibility Tests for Bacteria that Grow Aerobically; Approved Standard—11th Edition. Wayne, PA: CLSI, 2018.). Briefly, a 0.5 McFarland standard suspension was made from bacterial isolates on non-selective, solid media. The inocula were adjusted to give a bacterial concentration of 1×10^6 CFU/mL. Serial doubling-dilutions of each compound were prepared in cation-adjusted Mueller-Hinton broth (Sigma-Aldrich) in 96-well microdilution plates. A 50 μL aliquot of the inoculum was added to each microdilution plate and, within 15 minutes, incubated at 37° C. in air for 16-20 h. […] The test was controlled by the determination of piperacillin MIC against both E. coli ATCC 25922 and P. aeruginosa ATCC 27853 and ensuring accordance with the ranges published in CLSI supplementary document M100 (CLSI, M100Ed29: Clinical and Laboratory Standards Institute. Performance Standards for Antimicrobial Susceptibility Testing, 29th Edition. Wayne, PA: CLSI, 2018.).
(§4) Multiple enterobacteriaceae strains were tested, including E. coli ATCC 25922 and K. pneumoniae ATCC 43816. WT E. coli BW25113 was tested with an isogenic mutant deficient in acrA mediated efflux by clean deletion. WT P. aeruginosa PAO1 was tested with an isogenic mutant deficient in MexA mediated efflux by clean deletion.
(§5) Experimental results are provided in Table 4, which provides MIC values for wild-type E. coli BW25113 (“E. coli WT MIC”), an isogenic mutant deficient in acrA mediated efflux by clean deletion (“E. coli KO MIC”), wild-type P. aeruginosa PAO1 (“P. aeruginosa WT MIC”), and an isogenic mutant deficient in MexA mediated efflux by clean deletion (“[…]”).

[2] = test system: wild-type E. coli BW25113; assay: as above; type: cell-based; settings: Escherichia coli; wild-type E. coli BW25113, 37° C. 16-20 h; read-out: E. coli WT MIC
Protocol: as §2, §3, §4, §5

[3] = test system: E. coli BW25113 isogenic mutant deficient in acrA mediated efflux; assay: as above; type: cell-based; settings: Escherichia coli, BW25113, read-out: E. coli KO MIC
Protocol: as §2, §3, §4, §5

[4] = test system: P. aeruginosa PAO1 isogenic mutant deficient in MexA mediated efflux; assay: as above; type: cell-based; settings: Pseudomonas aeruginosa, PAO1, read-out: P. aeruginosa KO MIC
Protocol: as §2, §3, §4, §5

P. aeruginosa LpxC = P. aeruginosa LpxC (Pseudomonas aeruginosa (strain ATCC 15692 / DSM 22644 / CIP 104116 / JCM 14847 / LMG 12228 / 1C / PRS 101 / PAO1), UniProt P47205); assay: biochemical; type: biochemical; settings: 5 nM P. aeruginosa LpxC, 2.5 μM substrate, 1 hour at room temperature
Protocol: as §1
For ADDA™ analysis, an aliquot of assay sample was withdrawn from each well of the 384-well plate and applied to a Hypercarb cartridge (Optimize Technologies, USA) under conditions designed to retain analytes of interest. Analytes were eluted using 1:1:2 acetone:acetonitrile:water containing 5 mM ammonium acetate then analysed by triple-quadrupole mass spectrometry. Mass spectrometry was carried out using electrospray ionization in negative ion mode.
For IC50 determinations, peak areas of the substrate and product were compared to compute the proportion of substrate reacted by the LpxC enzyme at each compound concentration.

[5] = wild-type P. aeruginosa PAO1, 37° C. 16-20 h, read-out: P. aeruginosa WT MIC
[6] = PAO1, read-out: P. aeruginosa WT MIC

Sequence of E. coli LpxC (P0A725 whole entry): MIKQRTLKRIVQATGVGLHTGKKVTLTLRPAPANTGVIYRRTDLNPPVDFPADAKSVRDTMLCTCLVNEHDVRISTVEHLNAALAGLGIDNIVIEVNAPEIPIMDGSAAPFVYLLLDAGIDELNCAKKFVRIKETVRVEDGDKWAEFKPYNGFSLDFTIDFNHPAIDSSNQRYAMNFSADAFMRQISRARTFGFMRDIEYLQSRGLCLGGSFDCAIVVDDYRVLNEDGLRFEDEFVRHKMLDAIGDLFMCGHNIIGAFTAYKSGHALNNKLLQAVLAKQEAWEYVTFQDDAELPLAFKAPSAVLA

| SMILES | IC50 (E. coli LpxC) [nM] | MIC [1, 5] [µM] | MIC [2] [µM] | MIC [3] [µM] | MIC [4] [µM] | IC50 (P. aeruginosa LpxC) [nM] | MIC [1, 6] [µM] |
| --- | --- | --- | --- | --- | --- | --- | --- |
| O=C(N[C@@H]1C[C@H](C(=O)NCc2ccc(C#Cc3ccc(CN4CCOCC4)cc3)cc2)N(C(=O)C2CC2)C1)[C@@H]1C[C@H](F)CN1 [Example 9AJ] | < 500 | > 100 | 20 to 100 (≈ 12 to 60.2 µg/mL) | < 20 | < 20 | < 50 | – |
| O=C(N[C@@H]1C[C@H](C(=O)NCc2ccc(C#CC#CC3CC3)cc2)N(C(=O)C2CCNCC2)C1)[C@@H]1C[C@H](F)CN1 [Example 9P] | 2500 to 10000 | – | > 100 | > 100 | > 100 | 100 to 1000 | > 100 |
| COCCN1C[C@H](NC(=O)[C@@H]2C[C@H](F)CN2)C[C@@H]1C(=O)NCc1ccc(C#CC#CC2CC2)cc1 [Example 9AM, (2R,4R)—N-(4-(Cyclopropylbuta-1,3-diyn-1-yl)benzyl)-4-((2S,4S)-4-fluoropyrrolidine-2-carboxamido)-1-(2-methoxyethyl)pyrrolidine-2-carboxamide] | 2500 to 10000 | – | > 100 | > 100 | > 100 | 100 to 1000 | > 100 |
| O=C(NC[C@H]1C[C@@H](NC(=O)[C@@H]2C[C@H](F)CN2)CN1C(=O)C1CC1)c1ccc(C#Cc2ccccc2)cc1 [Example 9AX] | < 500 | > 100 | < 20 | < 20 | < 20 | < 50 | – |
| O=C(NC[C@H]1C[C@@H](NC(=O)[C@@H]2C[C@H](F)CN2)CN1C(=O)C1CC1)c1ccc(C#Cc2ccc(CN3CCOCC3)cc2)cc1 [Example 9AS] | < 500 | > 100 | < 20 | < 20 | < 20 | < 50 | – |
| CC(C)C(=O)N1C[C@H](NC(=O)[C@@H]2C[C@H](F)CN2)C[C@@H]1C(=O)NCc1ccc(C#CC#CC2CC2)cc1 [Example 9B] | 500 to 2500 | – | > 100 | 20 to 100 (≈ 9.85 to 49.3 µg/mL) | < 20 | < 50 | > 100 |
| CC(C)C(=O)N1C[C@H](NC(=O)[C@@H]2C[C@@H](F)CN2)C[C@@H]1C(=O)NCc1ccc(C#CC#CC2CC2)cc1 [Example 9I] | 2500 to 10000 | – | > 100 | > 100 | > 100 | 100 to 1000 | > 100 |
| CC(C)C(=O)N1C[C@H](NC(=O)[C@@H]2C[C@@H](O)CN2)C[C@@H]1C(=O)NCc1ccc(C#Cc2ccc(CN3CCOCC3)cc2)cc1 [Example 9Y] | < 500 | – | > 100 | 20 to 100 (≈ 12 to 60.2 µg/mL) | 20 to 100 (≈ 12 to 60.2 µg/mL) | 50 to 100 | > 100 |
